The subject of one series is MDA-MB-231. Briefly: MTT assay, antitumor activity (Figure 1 table). The settings on record: for IC50: read-out: IC50 (μM) MDA-MB-231. In general terms: Formazan colour is commonly taken as a measure of viable cells.
A further series deals with SK-MEL-28. The series is described as follows: MTT assay, antitumor activity (Figure 1 table). The settings on record: for IC50: read-out: IC50 (μM) SK-MEL-28.
For the next series, the system named is DU-145. Briefly: MTT assay, antitumor activity (Figure 1 table). The settings on record: for IC50: read-out: IC50 (μM) DU-145.
For a further series, the system named is OVCAR-3. The series is described as follows: MTT assay, antitumor activity (Figure 1 table).
A further series concerns Salmonella strain TA98. The series is described as follows: Ames mutagenicity test. On the technique in general: In the Ames test, an excess of revertant colonies over the control signals mutagenicity.
Series [1] deals with several human cancer cell lines. The series is described as follows: Screening of corrole derivatives and their NPs on several cancer cell lines. The series is classed as cell-based. Particulars: not consistent upon repeated experiments for 2-Au. Here is the method: Multiple corrole derivatives and their NPs were tested on several cancer cell lines. These include several metal chelated derivatives of 5,10,15-tris(pentafluorophenyl)corrole (2-H3) (Figure 1A); β-substituted (iodinated and brominated) corroles and several of its metal chelates (only 4-Au data are shown); different meso substituted corroles and their metal chelates (e.g., 5,15-di(pentafluorophenyl)-10-(imidazolyl)-corrole gallium(III), not presented); and the new synthetically available compound 5,10,15-tris(trifluoromethyl)corrole with different chelated metals (only the gallium(III) chelate 3-Ga is presented in Figure 1A). […] The best candidates from the high molecular weight list of corrole derivatives were the gold complexes 2-Au and 4-Au. […] Though there was an apparent effect on the cell cycle progression of the treated cells, there was no apparent cell death outcome accompanying the cell cycle arrest. Furthermore, the cell population within the culture wells appeared to be dividing freely and completely covering the wells’ surface (data not shown).

The next series relates to Salmonella strain TA100. The series is described as follows: Ames mutagenicity test. Particulars: S9: Yes.

Procedure for DU-145: (§1) Cell death was evaluated using a colorimetric [3-(4,5-dimethyl-thiazol-2-yl)-2,5-diphenyl-tetrazolium bromide] (MTT) assay. […] Cells intended for US exposure were plated separately. […] After this incubation period, purple formazan salt crystals were formed by a NADP/NADPH-dependent process, in metabolically active cells. […] The absorption of MTT was determined in a Tecan Sunrise Elisa-Reader (Switzerland) at 570/650 nm after automatic subtraction of background readings.
Procedure for MDA-MB-231: as §1
Procedure for OVCAR-3: as §1
Procedure for SK-MEL-28: as §1
Source text for Salmonella strain TA100: (§2) Briefly, the Ames test uses 5 bacterial strains (Salmonella and E. coli) that are exposed to a given compound with and without an enzymatic bioactivation system derived from rodent liver (S9). Each bacterial strain has a different loss of function mutation in a gene essential for the biosynthesis of a required amino acid, histidine in Salmonella or tryptophan in E. coli, such that they cannot grow and form colonies on agar plates lacking these amino acids.
Source text for Salmonella strain TA98: as §2

For the compound `Fc1c(F)c(F)c(C2=C3C=CC(=N3)C(c3c(F)c(F)c(F)c(F)c3F)=c3ccc4[n]3[Au]3[n]5c2ccc5-c2ccc([n]23)C=4c2c(F)c(F)c(F)c(F)c2F)c(F)c1F` [2-Au], the values for the IC50 with MDA-MB-231, in the series with SK-MEL-28 and with DU-145 were 0.01 to 1 µM, 0.006 to 5 µM and 0.005 to 4 µM, respectively.

Take `Fc1c(F)c(F)c(-c2c3nc(c(-c4c(F)c(F)c(F)c(F)c4F)c4ccc([nH]4)c4ccc([nH]4)c(-c4c(F)c(F)c(F)c(F)c4F)c4ccc2[nH]4)C=C3)c(F)c1F` [2-H3, 5,10,15-tris(pentafluorophenyl)corrole]: the “IC50 (μM) OVCAR-3” value in the series with OVCAR-3 is “ambiguous”. The “IC50 (μM) MDA-MB-231” value in the series with MDA-MB-231 is “ambiguous”. In addition, in the series with SK-MEL-28, the “IC50 (μM) SK-MEL-28” value is reported as “ambiguous”. For the same compound, the “IC50 (μM) DU-145” value in the series with DU-145 is “ambiguous”.

As for `Fc1c(F)c(F)c(C2=C3C=CC(=N3)C(c3c(F)c(F)c(F)c(F)c3F)=c3ccc4[n]3[Mn]3[n]5c2ccc5-c2ccc([n]23)C=4c2c(F)c(F)c(F)c(F)c2F)c(F)c1F` [2-Mn], the values for the concentration for half-maximal inhibition (IC50) with MDA-MB-231, in the series with SK-MEL-28 and in the series with DU-145 were 4 µM, 5 µM and 10 µM, respectively.

For the compound `O=[N+]([O-])c1ccc2c(c1)Cc1ccccc1-2` [2-nitrofluorine], the “AMES Result (Positive/Negative)” value in the series on Salmonella strain TA98 (S9: No) was “Positive”.

As to `Fc1c(F)c(F)c(C2=C3C=CC(=N3)C(c3c(F)c(F)c(F)c(F)c3F)=c3ccc4[n]3[Au]3[n]5c2c(I)c(I)c5-c2c(I)c(I)c([n]23)C=4c2c(F)c(F)c(F)c(F)c2F)c(F)c1F` [4-Au], the “IC50 values in several human cancer cell lines (in words)” value in series [1] is “submicromolar to single micromolar”. Besides, the IC50 was 1 µM in the series on OVCAR-3 (read-out: IC50 (μM) OVCAR-3), 1 to 10 µM in the series on MDA-MB-231, 1 to 10 µM in the series on SK-MEL-28 and 0.07 to 1 µM in the series with DU-145.

Regarding `Nc1cccc2cc3ccccc3cc12` [aminoanthracene], the “AMES Result (Positive/Negative)” value with Salmonella strain TA100 and in the series with Salmonella strain TA98 (S9: Yes) was “Positive” throughout.

What is called IC50 is the point on the concentration scale where inhibition reaches its midpoint.
